In US10870647B2, “Imidazopyridine derivative, method for preparing same, and pharmaceutical composition containing same as active ingredient for preventing or treating cancer” (DAEGU-GYEONGBUK MEDICAL INNOVATION FOUNDATION, priority 2016, dated 2020):

What was measured:
Test in all cases: Kinase selectivity, scanMAX Kinase assay panel (DiscoverX), % control at 1 uM
Format in all cases: binding
[1] = target: T1, scanMAX Kinase assay panel (Homo sapiens, UniProt P36894); conditions: BMPR1A; 1 uM; read-out: Percent Control (%)
T1 construct: purchased DiscoverX
In short: (§1)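 Read-out is percent of control, derived from the signal with compound relative to positive and negative controls: (compound − positive)/(negative − positive) × 100. Each enzyme received test drug at 1 uM in DMSO, and values under 35% count as active.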

[2] = target: T2, scanMAX Kinase assay panel (Homo sapiens, UniProt P57059); conditions: SIK; 1 uM; read-out: Percent Control (%)
T2 construct: purchased DiscoverX
In short: as §1

[3] = target: T3, scanMAX Kinase assay panel (Homo sapiens, UniProt Q6ZWH5); conditions: NEK10; 1 uM; read-out: Percent Control (%)
T3 construct: purchased DiscoverX
T3 sequence (Q6ZWH5 1-1172): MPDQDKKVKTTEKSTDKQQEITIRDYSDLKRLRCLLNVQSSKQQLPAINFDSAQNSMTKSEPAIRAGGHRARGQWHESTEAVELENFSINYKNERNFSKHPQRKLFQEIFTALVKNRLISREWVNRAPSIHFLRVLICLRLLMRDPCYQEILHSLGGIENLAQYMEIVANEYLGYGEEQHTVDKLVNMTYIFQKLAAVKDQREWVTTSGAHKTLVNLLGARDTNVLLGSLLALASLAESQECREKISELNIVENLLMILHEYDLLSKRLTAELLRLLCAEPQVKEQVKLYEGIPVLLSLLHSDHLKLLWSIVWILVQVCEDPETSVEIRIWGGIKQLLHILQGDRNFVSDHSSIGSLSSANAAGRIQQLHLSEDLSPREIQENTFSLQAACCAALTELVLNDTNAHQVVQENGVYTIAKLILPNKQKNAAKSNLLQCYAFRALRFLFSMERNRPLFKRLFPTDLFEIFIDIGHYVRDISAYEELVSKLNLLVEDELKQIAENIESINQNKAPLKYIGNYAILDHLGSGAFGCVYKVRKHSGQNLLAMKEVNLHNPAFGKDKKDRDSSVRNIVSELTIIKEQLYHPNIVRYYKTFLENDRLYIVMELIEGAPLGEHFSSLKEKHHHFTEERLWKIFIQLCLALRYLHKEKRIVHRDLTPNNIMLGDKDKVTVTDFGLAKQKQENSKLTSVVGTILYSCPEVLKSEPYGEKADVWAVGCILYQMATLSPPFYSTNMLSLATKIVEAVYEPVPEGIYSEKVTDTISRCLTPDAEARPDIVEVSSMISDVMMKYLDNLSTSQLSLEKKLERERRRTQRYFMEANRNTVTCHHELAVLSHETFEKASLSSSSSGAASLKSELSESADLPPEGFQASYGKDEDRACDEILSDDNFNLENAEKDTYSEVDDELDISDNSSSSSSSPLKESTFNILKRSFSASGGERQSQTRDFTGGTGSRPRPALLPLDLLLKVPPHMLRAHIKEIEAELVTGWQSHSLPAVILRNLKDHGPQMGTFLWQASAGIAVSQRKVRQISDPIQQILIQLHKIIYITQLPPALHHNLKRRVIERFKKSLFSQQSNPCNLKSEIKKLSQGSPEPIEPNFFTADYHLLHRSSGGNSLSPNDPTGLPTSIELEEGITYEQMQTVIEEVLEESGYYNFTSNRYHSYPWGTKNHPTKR
In short: as §1

[4] = target: T4, scanMAX Kinase assay panel (Homo sapiens, UniProt Q8NI60); conditions: ADCK3; 1 uM; read-out: Percent Control (%)
T4 construct: purchased DiscoverX
In short: as §1

[5] = target: T5, scanMAX Kinase assay panel (Homo sapiens, UniProt Q9H3Y6); conditions: SRMS; 1 uM; read-out: Percent Control (%)
T5 construct: purchased DiscoverX
In short: as §1

[6] = target: T6, scanMAX Kinase assay panel (Homo sapiens, UniProt Q9H422); conditions: HIPK3; 1 uM; read-out: Percent Control (%)
T6 construct: purchased DiscoverX
In short: as §1

[7] = target: T7, scanMAX Kinase assay panel (Homo sapiens, UniProt Q9P0L2); conditions: MARK1; 1 uM; read-out: Percent Control (%)
T7 construct: purchased DiscoverX
In short: as §1

[8] = target: T8, scanMAX Kinase assay panel (Homo sapiens, UniProt Q9UPZ9); conditions: ICK; 1 uM; read-out: Percent Control (%)
T8 construct: purchased DiscoverX
T8 sequence (Q9UPZ9 1-632): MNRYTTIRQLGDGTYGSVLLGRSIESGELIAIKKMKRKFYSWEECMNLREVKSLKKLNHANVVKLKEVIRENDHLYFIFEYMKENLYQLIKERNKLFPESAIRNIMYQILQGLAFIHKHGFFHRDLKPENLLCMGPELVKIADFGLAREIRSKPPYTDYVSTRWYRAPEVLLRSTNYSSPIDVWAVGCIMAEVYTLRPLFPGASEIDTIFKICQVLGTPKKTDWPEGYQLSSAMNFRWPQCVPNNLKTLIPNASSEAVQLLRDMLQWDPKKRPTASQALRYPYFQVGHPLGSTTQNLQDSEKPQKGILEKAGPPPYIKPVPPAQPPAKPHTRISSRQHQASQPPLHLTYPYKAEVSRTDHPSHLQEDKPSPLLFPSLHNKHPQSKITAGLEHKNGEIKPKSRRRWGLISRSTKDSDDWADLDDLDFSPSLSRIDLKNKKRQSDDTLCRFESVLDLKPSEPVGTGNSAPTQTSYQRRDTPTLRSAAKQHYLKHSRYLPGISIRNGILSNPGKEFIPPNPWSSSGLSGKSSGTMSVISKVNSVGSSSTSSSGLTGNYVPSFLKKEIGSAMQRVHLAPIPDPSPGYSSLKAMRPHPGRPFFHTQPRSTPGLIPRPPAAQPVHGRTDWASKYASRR
In short: as §1

[9] = target: T9, scanMAX Kinase assay panel (Homo sapiens, UniProt Q9Y6M4); conditions: CSNK1G3; 1 uM; read-out: Percent Control (%)
T9 construct: purchased DiscoverX
In short: as §1

T6 sequence (Q9H422 whole entry): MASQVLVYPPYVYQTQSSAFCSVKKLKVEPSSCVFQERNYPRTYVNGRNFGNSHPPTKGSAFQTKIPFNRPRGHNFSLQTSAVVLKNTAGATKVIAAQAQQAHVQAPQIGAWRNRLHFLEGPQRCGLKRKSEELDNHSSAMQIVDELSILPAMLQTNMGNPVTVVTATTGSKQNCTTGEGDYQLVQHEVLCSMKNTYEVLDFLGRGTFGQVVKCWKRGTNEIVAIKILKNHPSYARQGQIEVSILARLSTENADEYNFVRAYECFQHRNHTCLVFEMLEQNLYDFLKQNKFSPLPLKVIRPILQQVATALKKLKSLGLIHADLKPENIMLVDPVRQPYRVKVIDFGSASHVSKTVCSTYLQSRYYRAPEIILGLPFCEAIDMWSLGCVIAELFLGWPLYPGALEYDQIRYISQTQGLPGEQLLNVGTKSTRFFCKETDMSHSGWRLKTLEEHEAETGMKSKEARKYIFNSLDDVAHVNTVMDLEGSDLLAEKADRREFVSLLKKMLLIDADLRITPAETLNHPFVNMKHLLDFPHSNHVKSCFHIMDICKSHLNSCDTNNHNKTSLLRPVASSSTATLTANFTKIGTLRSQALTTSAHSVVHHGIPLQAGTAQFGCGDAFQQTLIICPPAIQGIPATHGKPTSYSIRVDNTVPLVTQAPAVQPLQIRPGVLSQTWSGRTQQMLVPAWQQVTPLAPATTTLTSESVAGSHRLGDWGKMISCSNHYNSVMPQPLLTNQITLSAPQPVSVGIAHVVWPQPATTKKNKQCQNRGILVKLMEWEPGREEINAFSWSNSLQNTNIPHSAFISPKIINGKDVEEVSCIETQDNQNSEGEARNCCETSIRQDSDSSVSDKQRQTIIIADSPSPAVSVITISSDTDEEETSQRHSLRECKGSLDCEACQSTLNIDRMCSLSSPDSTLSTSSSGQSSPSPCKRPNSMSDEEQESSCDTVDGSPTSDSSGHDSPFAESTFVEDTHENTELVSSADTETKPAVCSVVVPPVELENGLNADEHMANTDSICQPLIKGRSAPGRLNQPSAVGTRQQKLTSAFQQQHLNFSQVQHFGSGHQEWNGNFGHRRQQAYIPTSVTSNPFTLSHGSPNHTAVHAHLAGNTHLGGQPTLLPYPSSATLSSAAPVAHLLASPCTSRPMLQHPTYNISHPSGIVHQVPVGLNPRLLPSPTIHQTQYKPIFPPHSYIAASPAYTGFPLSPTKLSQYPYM
T1 sequence (P36894 24-532): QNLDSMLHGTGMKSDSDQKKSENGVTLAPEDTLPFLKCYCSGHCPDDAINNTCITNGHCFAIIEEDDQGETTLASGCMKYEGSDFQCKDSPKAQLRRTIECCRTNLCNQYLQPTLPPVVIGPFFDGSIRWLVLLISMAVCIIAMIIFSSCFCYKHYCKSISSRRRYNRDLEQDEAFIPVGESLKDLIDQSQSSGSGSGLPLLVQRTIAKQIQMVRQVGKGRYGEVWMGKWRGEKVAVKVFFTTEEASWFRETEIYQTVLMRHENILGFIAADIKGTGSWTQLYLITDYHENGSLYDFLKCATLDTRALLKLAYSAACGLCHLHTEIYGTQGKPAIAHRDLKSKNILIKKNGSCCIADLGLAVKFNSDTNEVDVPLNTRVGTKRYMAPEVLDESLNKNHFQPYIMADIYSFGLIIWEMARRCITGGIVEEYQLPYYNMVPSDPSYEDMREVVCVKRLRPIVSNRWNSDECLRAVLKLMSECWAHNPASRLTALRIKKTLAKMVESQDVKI
T9 sequence (Q9Y6M4 whole entry): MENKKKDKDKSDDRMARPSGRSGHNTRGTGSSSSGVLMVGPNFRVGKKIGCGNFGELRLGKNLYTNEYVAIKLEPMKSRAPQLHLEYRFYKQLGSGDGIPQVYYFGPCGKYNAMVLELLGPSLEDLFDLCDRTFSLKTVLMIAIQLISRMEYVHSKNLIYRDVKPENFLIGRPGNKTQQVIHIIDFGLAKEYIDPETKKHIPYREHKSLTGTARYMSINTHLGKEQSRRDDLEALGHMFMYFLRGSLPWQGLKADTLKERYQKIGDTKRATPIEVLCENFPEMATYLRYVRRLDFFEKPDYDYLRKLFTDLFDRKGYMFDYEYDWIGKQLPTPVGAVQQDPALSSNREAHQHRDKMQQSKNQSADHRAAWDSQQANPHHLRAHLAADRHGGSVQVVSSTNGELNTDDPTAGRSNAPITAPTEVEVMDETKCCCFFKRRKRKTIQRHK
T2 sequence (P57059 whole entry): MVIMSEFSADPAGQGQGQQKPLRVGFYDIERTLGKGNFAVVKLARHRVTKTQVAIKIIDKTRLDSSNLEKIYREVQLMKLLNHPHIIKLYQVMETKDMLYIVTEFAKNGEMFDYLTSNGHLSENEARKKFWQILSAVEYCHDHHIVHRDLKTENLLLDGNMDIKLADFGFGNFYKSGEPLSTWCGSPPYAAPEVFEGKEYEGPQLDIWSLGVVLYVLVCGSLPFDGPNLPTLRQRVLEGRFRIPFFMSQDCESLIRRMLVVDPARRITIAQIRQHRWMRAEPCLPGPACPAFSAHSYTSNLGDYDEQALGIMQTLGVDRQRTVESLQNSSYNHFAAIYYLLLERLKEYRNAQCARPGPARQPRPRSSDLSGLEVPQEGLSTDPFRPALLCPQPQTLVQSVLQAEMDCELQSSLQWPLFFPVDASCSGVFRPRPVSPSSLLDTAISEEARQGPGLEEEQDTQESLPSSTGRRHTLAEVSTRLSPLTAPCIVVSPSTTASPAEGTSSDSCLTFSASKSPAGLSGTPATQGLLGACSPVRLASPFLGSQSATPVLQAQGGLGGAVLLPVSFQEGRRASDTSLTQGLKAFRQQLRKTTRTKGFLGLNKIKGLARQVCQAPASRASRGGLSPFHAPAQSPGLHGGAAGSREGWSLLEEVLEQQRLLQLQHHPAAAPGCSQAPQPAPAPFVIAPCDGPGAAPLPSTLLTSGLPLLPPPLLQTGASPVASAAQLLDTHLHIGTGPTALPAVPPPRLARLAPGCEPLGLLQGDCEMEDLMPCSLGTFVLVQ
T4 sequence (Q8NI60 163-647): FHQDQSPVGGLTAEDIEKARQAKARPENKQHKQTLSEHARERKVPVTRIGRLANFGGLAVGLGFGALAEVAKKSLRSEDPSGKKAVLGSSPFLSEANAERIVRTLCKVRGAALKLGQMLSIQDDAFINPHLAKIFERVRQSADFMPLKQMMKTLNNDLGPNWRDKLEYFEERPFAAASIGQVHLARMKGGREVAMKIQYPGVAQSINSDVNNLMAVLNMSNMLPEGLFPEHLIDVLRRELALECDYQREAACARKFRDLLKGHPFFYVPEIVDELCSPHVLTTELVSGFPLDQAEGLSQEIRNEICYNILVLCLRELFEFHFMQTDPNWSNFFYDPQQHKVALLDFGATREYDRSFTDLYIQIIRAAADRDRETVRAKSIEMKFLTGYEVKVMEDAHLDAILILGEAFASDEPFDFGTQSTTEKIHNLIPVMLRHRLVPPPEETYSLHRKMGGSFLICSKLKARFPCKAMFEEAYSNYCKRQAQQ
T7 sequence (Q9P0L2 whole entry): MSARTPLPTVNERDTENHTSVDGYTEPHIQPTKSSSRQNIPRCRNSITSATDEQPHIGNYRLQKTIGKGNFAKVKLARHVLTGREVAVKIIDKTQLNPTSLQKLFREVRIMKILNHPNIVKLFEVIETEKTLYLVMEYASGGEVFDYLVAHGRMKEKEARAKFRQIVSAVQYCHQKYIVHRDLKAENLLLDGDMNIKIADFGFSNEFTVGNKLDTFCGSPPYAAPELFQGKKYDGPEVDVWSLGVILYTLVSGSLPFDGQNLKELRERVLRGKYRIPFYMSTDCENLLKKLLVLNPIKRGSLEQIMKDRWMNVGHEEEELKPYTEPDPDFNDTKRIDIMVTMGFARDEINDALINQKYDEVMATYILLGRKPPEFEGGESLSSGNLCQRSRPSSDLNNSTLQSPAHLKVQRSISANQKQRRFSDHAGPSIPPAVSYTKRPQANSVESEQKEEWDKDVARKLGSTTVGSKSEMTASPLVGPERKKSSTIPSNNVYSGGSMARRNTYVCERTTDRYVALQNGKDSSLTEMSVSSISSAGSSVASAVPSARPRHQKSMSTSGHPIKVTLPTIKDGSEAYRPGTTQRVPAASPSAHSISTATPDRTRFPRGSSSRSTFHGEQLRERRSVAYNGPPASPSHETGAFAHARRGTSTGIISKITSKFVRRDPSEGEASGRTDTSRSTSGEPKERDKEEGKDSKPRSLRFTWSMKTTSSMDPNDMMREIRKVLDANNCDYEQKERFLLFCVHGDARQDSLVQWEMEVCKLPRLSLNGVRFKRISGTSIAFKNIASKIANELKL
T5 sequence (Q9H3Y6 whole entry): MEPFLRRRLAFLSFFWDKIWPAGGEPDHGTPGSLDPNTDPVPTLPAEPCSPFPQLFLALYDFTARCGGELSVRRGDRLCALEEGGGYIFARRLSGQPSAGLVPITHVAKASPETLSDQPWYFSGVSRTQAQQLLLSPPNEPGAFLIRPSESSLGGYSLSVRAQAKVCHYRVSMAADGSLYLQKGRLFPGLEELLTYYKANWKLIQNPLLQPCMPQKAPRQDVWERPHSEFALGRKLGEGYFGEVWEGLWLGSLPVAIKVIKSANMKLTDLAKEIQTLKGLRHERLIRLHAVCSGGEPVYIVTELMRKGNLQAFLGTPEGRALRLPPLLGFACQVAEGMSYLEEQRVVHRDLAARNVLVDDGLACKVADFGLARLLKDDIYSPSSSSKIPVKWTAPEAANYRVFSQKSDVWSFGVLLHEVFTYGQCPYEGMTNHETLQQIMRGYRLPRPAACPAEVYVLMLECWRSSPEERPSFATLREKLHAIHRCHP

For `Cc1ccc(C(=O)Nc2ccc(CN3CCN(C)CC3)c(C(F)(F)F)c2)cc1C#Cc1cnc2c(Nc3cnn(C)c3)cccn12` [Example 1, 4-methyl-3-((8-((1-methyl-1H-pyrazol-4-yl)amino)imidazo[1,2-a]pyridin-3-yl)ethynyl)-N-(4-((4-methylpiperazin-1-yl)methyl)-3-(trifluoromethyl)phenyl)benzamide], the remaining binding at 1 µM [1] was 77%, the remaining binding at 1 µM [2] was 0% and the remaining binding at 1 µM [3] was 100%. The remaining binding at 1 µM [4] was 100%, the remaining binding at 1 µM [5] was 8% and the remaining binding at 1 µM [6] was 54%. For the same compound, the remaining binding at 1 µM [7] was 78%, the remaining binding at 1 µM [8] was 58% and the remaining binding at 1 µM [9] was 100%.
In the case of `Cc1cn(-c2cc(NC(=O)c3ccc(C)c(C#Cc4cnc5c(Nc6cnn(C)c6)cccn45)c3)cc(C(F)(F)F)c2)cn1` [Example 12, 4-methyl-N-(3-(4-methyl-1H-imidazol-1-yl)-5-(trifluoromethyl)phenyl)-3-((8-((1-methyl-1H-pyrazol-4-yl)amino)imidazo[1,2-a]pyridin-3-yl)ethynyl)benzamide], the remaining binding at 1 µM [1] is reported as 60%, the remaining binding at 1 µM [2] is reported as 5% and the remaining binding at 1 µM [3] is reported as 100%. The remaining binding at 1 µM [4] was 93%, the remaining binding at 1 µM [5] was 75% and the remaining binding at 1 µM [6] was 84%. The remaining binding at 1 µM [7] was 95%, the remaining binding at 1 µM [8] was 100% and the remaining binding at 1 µM [9] was 84%.
Compound `Cc1ccc(NC(=O)C2(C(=O)Nc3ccc(F)cc3)CC2)cc1C#Cc1cnc2c(Nc3cnn(C(C)C)c3)cccn12` [Example 78] has a remaining binding at 1 µM [1] of 94%, a remaining binding at 1 µM [2] of 25% and a remaining binding at 1 µM [3] of 100%. It also gave a remaining binding at 1 µM [4] of 100%, a remaining binding at 1 µM [5] of 94% and a remaining binding at 1 µM [6] of 100%. For the same compound, the remaining binding at 1 µM [7] was 100%, the remaining binding at 1 µM [8] was 100% and the remaining binding at 1 µM [9] was 100%.
